Experimental data: PubChem BioAssay (NCI)
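Cells were grown in 96-well plates and exposed to each compound for 48 hours at five concentrations; endpoints were interpolated linearly between bracketing concentrations, or set to the highest concentration if not reached. GI50: concentration for 50% inhibition of growth. TGI: total growth inhibition.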

Tests used:
Assay in all cases: DTP human tumour cell line panel, 48 h
HCC-2998 colon = tested on: HCC-2998 colon
SF-539 CNS = tested on: SF-539 CNS
NCI/ADR-RES ovarian = tested on: NCI/ADR-RES ovarian
EKVX NSCLC = tested on: EKVX NSCLC
K-562 leukemia = tested on: K-562 leukemia
CCRF-CEM leukemia = tested on: CCRF-CEM leukemia
LOX IMVI melanoma = tested on: LOX IMVI melanoma
HOP-62 NSCLC = tested on: HOP-62 NSCLC
MDA-MB-231 breast = tested on: MDA-MB-231 breast
SK-MEL-2 melanoma = tested on: SK-MEL-2 melanoma
SF-295 CNS = tested on: SF-295 CNS
786-0 renal = tested on: 786-0 renal
MOLT-4 leukemia = tested on: MOLT-4 leukemia
UACC-62 melanoma = tested on: UACC-62 melanoma
SK-MEL-28 melanoma = tested on: SK-MEL-28 melanoma
MCF7 breast = tested on: MCF7 breast
SF-268 CNS = tested on: SF-268 CNS
SR leukemia = tested on: SR leukemia
ACHN renal = tested on: ACHN renal
HT29 colon = tested on: HT29 colon
NCI-H23 lung = tested on: NCI-H23 lung
BT-549 breast = tested on: BT-549 breast
DU-145 prostate = tested on: DU-145 prostate
A549 NSCLC = tested on: A549 NSCLC
NCI-H522 lung = tested on: NCI-H522 lung
OVCAR-4 ovarian = tested on: OVCAR-4 ovarian
PC-3 prostate = tested on: PC-3 prostate
NCI-H226 lung = tested on: NCI-H226 lung
IGROV1 ovarian = tested on: IGROV1 ovarian
HOP-92 NSCLC = tested on: HOP-92 NSCLC
NCI-H460 lung = tested on: NCI-H460 lung
OVCAR-5 ovarian = tested on: OVCAR-5 ovarian
M14 melanoma = tested on: M14 melanoma
OVCAR-8 ovarian = tested on: OVCAR-8 ovarian
MALME-3M melanoma = tested on: MALME-3M melanoma
TK-10 renal = tested on: TK-10 renal
SN12C renal = tested on: SN12C renal
SK-MEL-5 melanoma = tested on: SK-MEL-5 melanoma
MDA-MB-435 = tested on: MDA-MB-435
HS 578T breast = tested on: HS 578T breast
SK-OV-3 ovarian = tested on: SK-OV-3 ovarian
KM12 colon = tested on: KM12 colon
CAKI-1 renal = tested on: CAKI-1 renal
RPMI-8226 leukemia = tested on: RPMI-8226 leukemia
HCT-116 colon = tested on: HCT-116 colon
SNB-19 CNS = tested on: SNB-19 CNS
U251 CNS = tested on: U251 CNS
HCT-15 colon = tested on: HCT-15 colon
T-47D breast = tested on: T-47D breast
SW-620 colon = tested on: SW-620 colon
COLO 205 colon = tested on: COLO 205 colon
HL-60(TB) leukemia = tested on: HL-60(TB) leukemia
A498 renal = tested on: A498 renal
UO-31 renal = tested on: UO-31 renal
UACC-257 melanoma = tested on: UACC-257 melanoma
SNB-75 CNS = tested on: SNB-75 CNS
RXF 393 renal = tested on: RXF 393 renal

In the case of `CNC(=O)c1cc(Oc2ccc3c(c2)sc2nc(-c4ccc(N(C)C)cc4)cn23)ccn1`, the GI50 (HCC-2998 colon) was 0.836 µM, the TGI (HCC-2998 colon) was over 13.4 µM and the GI50 (SF-539 CNS) was 0.178 µM. The TGI (SF-539 CNS) was 1.28 µM, the GI50 (NCI/ADR-RES ovarian) was 0.186 µM and the TGI (NCI/ADR-RES ovarian) was over 50 µM. The GI50 (EKVX NSCLC) was 1.98 µM, the TGI (EKVX NSCLC) was over 50 µM and the GI50 (K-562 leukemia) was 0.152 µM. It also gave a TGI (K-562 leukemia) of over 50 µM, a GI50 (CCRF-CEM leukemia) of 0.197 µM and a TGI (CCRF-CEM leukemia) of over 50 µM. It also gave a GI50 (LOX IMVI melanoma) of 0.474 µM, a TGI (LOX IMVI melanoma) of 1.77 µM and a GI50 (HOP-62 NSCLC) of 0.319 µM. It also gave a TGI (HOP-62 NSCLC) of over 50 µM, a GI50 (MDA-MB-231 breast) of 0.438 µM and a TGI (MDA-MB-231 breast) of over 37 µM. The GI50 (SK-MEL-2 melanoma) was 0.496 µM, the TGI (SK-MEL-2 melanoma) was over 10.5 µM and the GI50 (SF-295 CNS) was 0.16 µM. It also gave a TGI (SF-295 CNS) of 1.15 µM, a GI50 (786-0 renal) of 0.291 µM and a TGI (786-0 renal) of over 18.1 µM. For the same molecule, the GI50 (MOLT-4 leukemia) was 0.213 µM, the TGI (MOLT-4 leukemia) was over 50 µM and the GI50 (UACC-62 melanoma) was 0.17 µM. It also gave a TGI (UACC-62 melanoma) of over 50 µM, a GI50 (SK-MEL-28 melanoma) of 1.74 µM and a TGI (SK-MEL-28 melanoma) of over 50 µM. It also gave a GI50 (MCF7 breast) of 0.167 µM, a TGI (MCF7 breast) of over 50 µM and a GI50 (SF-268 CNS) of 0.854 µM. It also gave a TGI (SF-268 CNS) of over 50 µM, a GI50 (SR leukemia) of 0.114 µM and a TGI (SR leukemia) of over 50 µM. It also gave a GI50 (ACHN renal) of 0.303 µM, a TGI (ACHN renal) of over 50 µM and a GI50 (HT29 colon) of 0.177 µM. The TGI (HT29 colon) was 0.739 µM, the GI50 (NCI-H23 lung) was 0.614 µM and the TGI (NCI-H23 lung) was over 50 µM. The GI50 (BT-549 breast) was 0.208 µM, the TGI (BT-549 breast) was 31.4 µM and the GI50 (DU-145 prostate) was 0.451 µM. For the same molecule, the TGI (DU-145 prostate) was over 50 µM, the GI50 (A549 NSCLC) was 0.409 µM and the TGI (A549 NSCLC) was over 50 µM. It also gave a GI50 (NCI-H522 lung) of 0.146 µM, a TGI (NCI-H522 lung) of 0.74 µM and a TGI (OVCAR-4 ovarian) of over 50 µM. The GI50 (PC-3 prostate) was 0.225 µM, the TGI (PC-3 prostate) was over 50 µM and the GI50 (NCI-H226 lung) was 0.39 µM. For the same molecule, the TGI (NCI-H226 lung) was over 50 µM, the GI50 (IGROV1 ovarian) was 0.292 µM and the TGI (IGROV1 ovarian) was over 50 µM. For the same molecule, the GI50 (HOP-92 NSCLC) was 0.26 µM, the TGI (HOP-92 NSCLC) was over 30.3 µM and the GI50 (NCI-H460 lung) was 0.206 µM. For the same molecule, the TGI (NCI-H460 lung) was over 50 µM, the GI50 (OVCAR-5 ovarian) was 0.659 µM and the TGI (OVCAR-5 ovarian) was over 50 µM. For the same molecule, the GI50 (M14 melanoma) was 0.193 µM, the TGI (M14 melanoma) was over 50 µM and the GI50 (OVCAR-8 ovarian) was 0.355 µM. For the same molecule, the TGI (OVCAR-8 ovarian) was 2.6 µM, the GI50 (MALME-3M melanoma) was 0.291 µM and the TGI (MALME-3M melanoma) was over 50 µM. It also gave a GI50 (TK-10 renal) of 3.72 µM, a TGI (TK-10 renal) of over 50 µM and a GI50 (SN12C renal) of 0.282 µM. For the same molecule, the TGI (SN12C renal) was over 50 µM, the GI50 (SK-MEL-5 melanoma) was 0.206 µM and the TGI (SK-MEL-5 melanoma) was 2.11 µM. It also gave a GI50 (MDA-MB-435) of 0.094 µM, a TGI (MDA-MB-435) of 0.237 µM and a GI50 (HS 578T breast) of 0.219 µM. For the same molecule, the TGI (HS 578T breast) was over 44.1 µM, the GI50 (SK-OV-3 ovarian) was 0.273 µM and the TGI (SK-OV-3 ovarian) was over 50 µM. For the same molecule, the GI50 (KM12 colon) was 0.241 µM, the TGI (KM12 colon) was over 50 µM and the GI50 (CAKI-1 renal) was 0.291 µM. It also gave a TGI (CAKI-1 renal) of over 50 µM, a GI50 (RPMI-8226 leukemia) of 0.329 µM and a TGI (RPMI-8226 leukemia) of over 50 µM. The GI50 (HCT-116 colon) was 0.241 µM, the TGI (HCT-116 colon) was over 50 µM and the GI50 (SNB-19 CNS) was 0.251 µM. The TGI (SNB-19 CNS) was over 50 µM, the GI50 (U251 CNS) was 0.21 µM and the TGI (U251 CNS) was 6.37 µM. The GI50 (HCT-15 colon) was 0.202 µM, the TGI (HCT-15 colon) was over 50 µM and the GI50 (T-47D breast) was 0.271 µM. For the same molecule, the TGI (T-47D breast) was over 50 µM, the GI50 (SW-620 colon) was 0.226 µM and the TGI (SW-620 colon) was over 50 µM. The GI50 (COLO 205 colon) was 0.26 µM, the TGI (COLO 205 colon) was 1.96 µM and the GI50 (HL-60(TB) leukemia) was 0.134 µM. For the same molecule, the TGI (HL-60(TB) leukemia) was 3.48 µM, the GI50 (A498 renal) was 0.14 µM and the TGI (A498 renal) was 0.831 µM. It also gave a GI50 (UO-31 renal) of 0.289 µM, a TGI (UO-31 renal) of over 50 µM and a GI50 (UACC-257 melanoma) of 19.6 µM. For the same molecule, the TGI (UACC-257 melanoma) was over 50 µM, the GI50 (SNB-75 CNS) was 0.123 µM and the TGI (SNB-75 CNS) was 0.398 µM. It also gave a GI50 (RXF 393 renal) of 0.128 µM and a TGI (RXF 393 renal) of 0.44 µM.
